Molecules are shown by their SMILES.

The term IC50 denotes the concentration that inhibits the measured activity by half. What is called EC50 is the midpoint of the concentration-response curve.

For one assay, the target named is T1, PPARα (Homo sapiens, UniProt Q07869).
T1 construct: made in house; host or cells: HEK293 (cell lysates)
T1 sequence (Q07869 1-468): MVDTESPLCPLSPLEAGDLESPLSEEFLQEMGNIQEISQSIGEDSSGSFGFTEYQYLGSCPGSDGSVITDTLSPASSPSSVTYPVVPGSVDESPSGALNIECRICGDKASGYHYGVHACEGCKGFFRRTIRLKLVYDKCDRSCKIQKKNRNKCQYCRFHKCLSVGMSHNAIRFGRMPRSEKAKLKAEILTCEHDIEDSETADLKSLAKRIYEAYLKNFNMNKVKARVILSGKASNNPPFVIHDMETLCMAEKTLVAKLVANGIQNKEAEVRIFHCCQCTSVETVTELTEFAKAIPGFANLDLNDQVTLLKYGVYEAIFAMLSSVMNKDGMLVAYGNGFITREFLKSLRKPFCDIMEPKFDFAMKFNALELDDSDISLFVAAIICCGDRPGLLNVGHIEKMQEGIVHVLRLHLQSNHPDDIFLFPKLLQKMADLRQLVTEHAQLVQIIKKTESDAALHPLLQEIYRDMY
T1 sequence (P19793 1-462 partner): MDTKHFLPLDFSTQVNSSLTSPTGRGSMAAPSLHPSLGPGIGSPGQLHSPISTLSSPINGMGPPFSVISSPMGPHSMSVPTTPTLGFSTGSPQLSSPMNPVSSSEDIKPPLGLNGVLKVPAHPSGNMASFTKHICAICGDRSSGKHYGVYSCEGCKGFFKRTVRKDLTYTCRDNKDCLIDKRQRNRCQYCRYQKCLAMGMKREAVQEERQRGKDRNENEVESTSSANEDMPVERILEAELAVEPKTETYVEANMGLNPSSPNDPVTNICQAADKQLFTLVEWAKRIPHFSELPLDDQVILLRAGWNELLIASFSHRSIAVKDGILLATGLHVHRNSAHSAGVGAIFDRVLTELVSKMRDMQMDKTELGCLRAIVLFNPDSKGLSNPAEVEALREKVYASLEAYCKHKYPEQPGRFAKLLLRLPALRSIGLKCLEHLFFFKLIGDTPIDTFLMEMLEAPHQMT
Nature of the assay: PPARα binding assay (SPA). As for the experimental part:
Because GPR40 is known to be activated by ligands to PPARγ, the exemplified compound is examined in PPARα, PPARδ, and PPARγ binding and functional assays to determine the selectivity of the compound of Example 1 for GPR40.
Binding affinities of the compound for the PPAR α, δ, and γ receptors are assessed using Scintillation Proximity Assay (SPA) technology. Biotinylated oligonucleotide Direct Repeat 2 (DR2) is used for binding the receptors to Yttrium silicate streptavidin-coated SPA beads. PPAR α, δ, γ and retinoid X receptor (RXR) α are over expressed in HEK293 cells, and cell lysates containing the specific receptors are used in the individual assays. The DR2 is attached to the SPA beads over a 30 minute period in a binding buffer containing 10 mM HEPES pH 7.8, 80 mM KCl, 0.5 mM MgCl2, 1 mM DTT, 0.5% 3[(3-cholamidopropyl)dimethylammonio]-propanesulfonic acid (CHAPS), and 4.4% bovine serum. […] Non-specific binding is determined in the presence of 10,000 nM of the unlabeled PPAR α/δ dual agonist reference compound for the alpha and delta receptor assays and the PPARγ agonist reference compound for the gamma receptor assay. The binding reaction (100 μl per well in a 96 well [Costar 3632] plate) is incubated for 10 h and counted disintegration per minutes (dpm) on a Wallac Microbeta. Receptor binding affinity (IC50) for the compound is determined by fitting an 11 point concentration-response curve with a 4-parameter logistic equation. Ki is determined from the IC50 using the Cheng-Prussoff equation and Kd determined by saturation binding. […]

In the next assay the target is human GPR40 (Homo sapiens, UniProt O14842). Nature of the assay: cell-based.
Chain of human GPR40 (O14842 whole entry): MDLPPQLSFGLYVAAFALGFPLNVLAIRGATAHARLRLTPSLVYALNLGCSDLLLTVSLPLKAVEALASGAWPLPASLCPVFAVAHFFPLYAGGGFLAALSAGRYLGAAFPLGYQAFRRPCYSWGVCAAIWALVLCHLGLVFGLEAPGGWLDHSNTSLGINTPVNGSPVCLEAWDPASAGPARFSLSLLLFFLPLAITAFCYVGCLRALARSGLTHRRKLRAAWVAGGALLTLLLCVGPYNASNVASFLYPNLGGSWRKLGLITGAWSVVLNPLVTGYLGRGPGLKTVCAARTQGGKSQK

For the molecule `CC#C[C@@H](CC(=O)O)c1ccc(OCc2ccc(CN3CCCc4cccc(OC)c43)s2)cc1` [Example 1, (3S)-3-[4-[[5-[(8-Methoxy-3,4-dihydro-2H-quinolin-1-yl)methyl]-2-thienyl]methoxy]phenyl]hex-4-ynoic acid], the binding entry at PPARα (concentrations up to 10 μM) is “no binding is detected”. Besides, the IC50 at PPARα (tested up to 30 μM, read-out: relative IC50) was more than 10000 nM. Besides, the PPAR binding values entry at PPARα (with 10 μM concentrations of test compound) is “greater than 1000 nM”. Further, the EC50 on human GPR40 (EC50, HEK293 cells over expressing human GPR40, 0.1% fatty acid free BSA, FLIPR) is 152 nM; at human GPR40 (EC50 value for the Calcium Flux Primary assay, HEK293 cells over expressing human GPR40, bound stated), less than 1000 nM.
